Measured values published in patent publication US20240010646A1, “Urea Co-Crystal of Apixaban, and Preparation Method Therefor” (CHENGDU EASTON BIOPHARMACEUTICALS CO., LTD., priority 2021, published 2024).
In brackets after ≈: the same amount, converted by molar mass. Like-named read-outs stand apart in the source and are kept apart here.

Experiments:
[1] = Equilibrium solubility test (saturated solutions, external standard method); assay type: physicochemical
[2] = Stability test (high temperature, light irradiation, long-term and accelerated storage); assay type: physicochemical
[3] = In vivo pharmacokinetic test in rat, single oral administration, plasma LC/MS/MS; parameters: species or system SD rats; conditions: for AUClast / Cl_F_obs / Cmax / MRT / T1/2 / Tmax / AUC(0-t) / half-life: corn oil suspension, 4 mL/kg
Experimental: 18 SD rats with 9 male rats and 9 female rats, weighing 220-240 g, purchased by Chengdu Ensiweier Biotechnology Co., Ltd. from Hunan SJA Laboratory Animal Co., Ltd, License: SCXK (Xiang) 2019-0004.
After the test drugs were prepared into […] uniform suspensions with corn oil, they were immediately administered orally to rats at 4 mL/kg, and 0.1 mL of blood was sampled from the jugular vein before the administration and 15 min, 30 min, 1 h, 2 h, 3 h, 4 h, 5 h, 6 h, 7 h, 8 h and 24 h after the administration, placed in EDTA-K2 tubes and centrifuged at 3000 r/min for 10 min. The plasma was separated and stored by freezing at −80° C. in refrigerator.
50 μL of plasma was taken and evenly mixed with 5 μL of working solution or blank diluent, 150 μL of the internal-standard acetonitrile-containing precipitant was added thereto, which was shaken with vortex for 2 min, and centrifuged at 12000 r/min for 10 min. 2 μL of Supernatant was taken and mixed with 200 μL of pure water: acetonitrile (1:1), and then the resultant sample was injected with a volume of 3 μL for analysis.

[4] = female rats, listed as The urea co-crystal A
[5] = male rats, listed as The urea co-crystal A
[6] = female rats, listed as Crystalline form N-1
[7] = female, Sprague-Dawley (SD), rat, plasma, po, 1.25 mg/kg, female rats
[8] = male, Sprague-Dawley (SD), rat, plasma, po, 1.25 mg/kg, male rats

COc1ccc(-n2nc(C(N)=O)c3c2C(=O)N(c2ccc(N4CCCCC4=O)cc2)CC3)cc1 [Co-crystal A]
solubility ([1]; hydrochloric acid pH 1.0 (0.1N), 25° C.): 48.62 µg/mL | solubility ([1]; hydrochloric acid pH 1.0 (0.1N), 37° C.): 57.33 µg/mL | solubility ([1]; phosphate buffer pH 6.8, 37° C.): 42.74 µg/mL | solubility ([1]; phosphate buffer, 25 °C, pH 6.8, aqueous buffer, thermodynamic from solid, phosphate buffer pH 6.8, 25° C., read-out: Solubility): 37.2 µg/mL | solubility ([1]; pure water, 25° C.): 55.78 µg/mL | solubility ([1]; pure water, 37° C.): 67.98 µg/mL | Purity % ([2]; 25 ± 2° C., 60 ± 5% RH, 6 months): 99.92% | Purity % ([2]; 25 ± 2° C., 60 ± 5% RH, Start): 99.93% | Purity % ([2]; 40 ± 2° C., 75 ± 5% RH, 6 months): 99.92% | Purity % ([2]; 40 ± 2° C., 75 ± 5% RH, Start): 99.93% | Purity % ([2]; High Temperature (60° C.), 1 month): 99.92% | Purity % ([2]; High Temperature (60° C.), Start): 99.93% | Purity % ([2]; Light Irradiation, 1 month): 99.93% | Purity % ([2]; Light Irradiation, Start): 99.93% | Crystalline form stability ([2]; all study conditions): good crystalline form stability | Increase of bioavailability compared with crystalline form N-1 ([3]; female rats): 21% | Increase of bioavailability compared with the urea co-crystal IV from HEC Pharm Co., Ltd ([3]; female rats): 44.98% | AUClast [3, 4]: 33636 ± 8113 ng·h/mL | Cl_F_obs [3, 4]: 7.2 ± 1.9 mL/day/kg | Cmax [3, 4]: 4653 ± 763 ng/mL | MRT [3, 4]: 5.55 ± 0.61 h | T1/2 [3, 4]: 4.49 ± 0.10 h | Tmax [3, 4]: 1.08 ± 0.72 h | Increase of bioavailability compared with crystal form N-1 ([3]; male rats): 29.36% | Increase of bioavailability compared with the urea co-crystal IV from HEC Pharm Co., Ltd ([3]; male rats): 49.94% | AUClast [3, 5]: 25567 ± 14447 ng·h/mL | Cl_F_obs [3, 5]: 10.8 ± 4.8 mL/day/kg | Cmax [3, 5]: 7970 ± 4475 ng/mL | MRT [3, 5]: 4.16 ± 0.41 h | T1/2 [3, 5]: 5.53 ± 2.98 h | Tmax [3, 5]: 1.00 ± 0.00 h

COc1ccc(-n2nc(C(N)=O)c3c2C(=O)N(c2ccc(N4CCCCC4=O)cc2)CC3)cc1 [N-1, 1-(4-methoxyphenyl)-7-oxo-6-(4-(2-oxopiperidin-1-yl)phenyl)-4,5,6,7-tetrahydr o-1H-pyrazolo[3,4-c]pyridine-3-carboxamide, reference compound]
solubility ([1]; hydrochloric acid (0.1N), 25 °C, pH 1, simulated gastric fluid, thermodynamic from solid, hydrochloric acid pH 1.0 (0.1N), 25° C., read-out: Solubility): 31.4 µg/mL (≈ 68.4 µM) | solubility ([1]; hydrochloric acid (0.1N), 37 °C, pH 1, simulated gastric fluid, thermodynamic from solid, hydrochloric acid pH 1.0 (0.1N), 37° C., read-out: Solubility): 38.4 µg/mL (≈ 83.6 µM) | solubility ([1]; phosphate buffer pH 6.8, 25° C.): 22.09 µg/mL (≈ 48.1 µM) | solubility ([1]; phosphate buffer, 37 °C, pH 6.8, aqueous buffer, thermodynamic from solid, phosphate buffer pH 6.8, 37° C., read-out: Solubility): 29.4 µg/mL (≈ 63.9 µM) | solubility ([1]; pure water, 25 °C, water, thermodynamic from solid, pure water, 25° C., read-out: Solubility): 36.7 µg/mL (≈ 79.8 µM) | solubility ([1]; pure water, 37 °C, water, thermodynamic from solid, pure water, 37° C., read-out: Solubility): 49.2 µg/mL (≈ 107 µM) | Cl_F_obs [3, 6]: 13.4 mL/day/kg | Tmax [3, 6]: 5.83 ± 3.75 h | AUC(0-t) [3, 7]: 27800 ± 13000 ng·h/mL | half-life [3, 7]: 6.83 h | Cmax ([3]; female, Sprague-Dawley (SD), rat, plasma, po, 1.25 mg/kg, female rats, read-out: Cmax): 2570 ± 999 ng/mL | MRT ([3]; female, Sprague-Dawley (SD), rat, plasma, po, 1.25 mg/kg, female rats, read-out: MRT): 7.37 ± 1.79 h | Cl_F_obs ([3]; male rats, listed as Crystalline form N-1): 15.4 ± 7.68 mL/day/kg | AUC(0-t) [3, 8]: 19800 ± 14000 ng·h/mL | half-life [3, 8]: 5.05 ± 1.43 h | Cmax ([3]; male, Sprague-Dawley (SD), rat, plasma, po, 1.25 mg/kg, male rats, read-out: Cmax): 4090 ± 3250 ng/mL | MRT ([3]; male, Sprague-Dawley (SD), rat, plasma, po, 1.25 mg/kg, male rats, read-out: MRT): 4.78 ± 0.75 h | Tmax ([3]; male, Sprague-Dawley (SD), rat, plasma, po, 1.25 mg/kg, male rats, read-out: Tmax): 1 ± 0.87 h
